# System: NRF2
# Assay: NQO1 mRNA levels in skin cultured in the device and treated with an NRF2 activator
# Assay type: cell-based
# Conditions: tissue treated on Day 0 versus Day 4 of culture in the 384-well device
# Method: FIG. 8A is a perspective view of another embodiment of the present invention 341. […] The base has holes (not shown) which receive fixings 349. […] FIG. 8B is a schematic diagram which summarises an experiment in which skin cultured in the apparatus 341 was treated with a small molecule NRF2 activator (TBE-31) in order to evaluate the intracellular viability of the tissue. NRF2 transcriptionally regulates multiple genes that play both direct and indirect roles in activating intracellular anti-oxidative pathways.
smiles,measurement,value
C#C[C@]12C=C(C#N)C(=O)C=C1[C@@]1(C)C=C(C#N)C(=O)C(C)(C)[C@@H]1CC2 [TBE-31],NRF2 response (NQO1 mRNA levels) in cultured skin,statistically the same

# From patent publication US20190314812A1, “SKIN SAMPLE CULTURE AND MEMBRANE TEST DEVICE” (The University of Dundee, priority 2016, published 2019)
